Data taken from US12559495B2 (Agency for Science, Technology and Research, priority 2013, dated 2026).

Tested on: HEK293-STF3A cells
Test: STF3A assay (luciferase reporter)
Format: cell-based
Conditions: Homo sapiens, 24 h, 1 day of treatment
Description: HEK293-STF cell line was modified from Human embryonic kidney cell line HEK293 transfected with the STF reporter. HEK293-STF3A cell line was further modified from HEK293-STF cell line to express Wnt3A. This cell line was used to identify compounds that regulate either early or late signalling components of the Wnt pathway. L-Wnt3A (ATCC, #CRL-2647) cell line was used for providing Wnt3A conditioned media. The three cell lines were grown in DMEM (Dulbecco's Modified Eagle Medium) with 10% FBS (fetal bovine serum) incubated in 37° C. with 5% CO2. 2×10^4 HEK293-STF3A cells in 75 μl culture media were seeded in each well of white 96 well plates (Greiner #655098) and incubated overnight at 37° C. 25 μl serially diluted compound was added to the cells to give final concentration of 50 μM to 1.5 nM. After 1 day of treatment, 100 μl of Steady-Glo® Luciferase Assay reagent (#E2520, Promega) was added to each well and incubated for 10 minutes at room temperature. Luminescence was measured using Tecan Safire2® plate reader.

`Cn1c(=O)c2c(ncn2CC(=O)Nc2ccc(-c3cncs3)cc2)n(C)c1=O` [Compound 1, 2-(1,3-dimethyl-2,6-dioxo-2,3-dihydro-1H-purin-7(6H)-yl)-N-(4-(thiazol-5-yl)phenyl)acetamide] and `Cn1c(=O)c2c(ncn2CC(=O)Nc2ccc(-c3ncco3)cc2)n(C)c1=O` [Compound 24, 2-(1,3-dimethyl-2,6-dioxo-2,3-dihydro-1H-purin-7(6H)-yl)-N-(4-(oxazol-2-yl)phenyl)acetamide] cannot be ordered by IC50: less than 100 nM for the first, less than 1000 nM for the second.

`Cn1c(=O)c2c(ncn2CC(=O)Nc2ccc(-c3ccccc3)s2)n(C)c1=O` [Compound 2, 2-(1,3-dimethyl-2,6-dioxo-2,3-dihydro-1H-purin-7(6H)-yl)-N-(5-phenylthiophen-2-yl)acetamide] and `Cn1c(=O)c2c(ncn2CC(=O)Nc2cc(-c3ccccc3)cs2)n(C)c1=O` [Compound 3, 2-(1,3-dimethyl-2,6-dioxo-2,3-dihydro-1H-purin-7(6H)-yl)-N-(4-phenylthiophen-2-yl)acetamide] cannot be ordered by IC50: less than 100 nM for the first, less than 1000 nM for the second.

`Cn1c(=O)c2c(ncn2CC(=O)Nc2ccc(-n3ccnc3)cc2)n(C)c1=O` [Compound 4, N-(4-(1H-imidazol-1-yl)phenyl)-2-(1,3-dimethyl-2,6-dioxo-2,3-dihydro-1H-purin-7(6H)-yl)acetamide] and `Cn1c(=O)c2c(ncn2CC(=O)Nc2ccc(-c3ccncc3)cc2)n(C)c1=O` [Compound 10, 2-(1,3-dimethyl-2,6-dioxo-2,3-dihydro-1H-purin-7(6H)-yl)-N-(4-(pyridin-4-yl)phenyl)acetamide] cannot be ordered by IC50: less than 1000 nM for the first, less than 1000 nM for the second.

`Cn1c(=O)c2c(ncn2CC(=O)Nc2ccc(-c3cccnn3)cc2)n(C)c1=O` [Compound 6, 2-(1,3-dimethyl-2,6-dioxo-2,3-dihydro-1H-purin-7(6H)-yl)-N-(4-(pyridazin-3-yl)phenyl)acetamide] and `Cn1c(=O)c2c(ncn2CC(=O)Nc2ccc(-c3ccccn3)cc2)n(C)c1=O` [Compound 25, 2-(1,3-dimethyl-2,6-dioxo-2,3-dihydro-1H-purin-7(6H)-yl)-N-(4-(pyridin-2-yl)phenyl)acetamide] cannot be ordered by IC50: less than 1000 nM for the first, less than 100 nM for the second.

`Cn1c(=O)c2c(ncn2CC(=O)Nc2ccc(-c3ncccn3)cc2)n(C)c1=O` [Compound 8, 2-(1,3-dimethyl-2,6-dioxo-2,3-dihydro-1H-purin-7(6H)-yl)-N-(4-(pyrimidin-2-yl)phenyl)acetamide] and `Cn1c(=O)c2c(ncn2CC(=O)Nc2ccc(-c3cccnc3)cc2)n(C)c1=O` [Compound 26, 2-(1,3-dimethyl-2,6-dioxo-2,3-dihydro-1H-purin-7(6H)-yl)-N-(4-(pyridin-3-yl)phenyl)acetamide] cannot be ordered by IC50: less than 5000 nM for the first, less than 100 nM for the second.

`Cn1c(=O)c2c(ncn2CC(=O)Nc2ccc(-c3ccccn3)cn2)n(C)c1=O` [Compound 9, N-(2,3′-bipyridin-6′-yl)-2-(1,3-dimethyl-2,6-dioxo-2,3-dihydro-1H-purin-7(6H)-yl)acetamide] and `Cn1c(=O)c2c(ncn2CC(=O)Nc2ccc(-c3ccccc3)cn2)n(C)c1=O` [Compound 19, 2-(1,3-dimethyl-2,6-dioxo-2,3-dihydro-1H-purin-7(6H)-yl)-N-(5-phenylpyridin-2-yl)acetamide] cannot be ordered by IC50: less than 100 nM for the first, less than 100 nM for the second.

`Cn1c(=O)c2c(ncn2CC(=O)Nc2ccc(-c3ccc(F)cc3)nn2)n(C)c1=O` [Compound 11, 2-(1,3-dimethyl-2,6-dioxo-2,3-dihydro-1H-purin-7(6H)-yl)-N-(6-(4-fluorophenyl)pyridazin-3-yl)acetamide] and `Cn1c(=O)c2c(ncn2CC(=O)Nc2ccc(-c3ccncc3)nn2)n(C)c1=O` [Compound 12, 2-(1,3-dimethyl-2,6-dioxo-2,3-dihydro-1H-purin-7(6H)-yl)-N-(6-(pyridin-4-yl)pyridazin-3-yl)acetamide] cannot be ordered by IC50: less than 100 nM for the first, less than 5000 nM for the second.

First: Cc1cc(-c2ccccc2)ccc1NC(=O)Cn1cnc2c1c(=O)n(C)c(=O)n2C [Compound 13, 2-(1,3-dimethyl-2,6-dioxo-2,3-dihydro-1H-purin-7(6H)-yl)-N-(3-methylbiphenyl-4-yl)acetamide]
Second: Cc1cccc(-c2ccc(NC(=O)Cn3cnc4c3c(=O)n(C)c(=O)n4C)cc2)c1 [Compound 29, 2-(1,3-dimethyl-2,6-dioxo-2,3-dihydro-1H-purin-7(6H)-yl)-N-(3′-methylbiphenyl-4-yl)acetamide]
The IC50 of the first is higher: greater than 10000 nM for the first, less than 100 nM for the second.

Compared with `COc1cc(NC(=O)Cn2cnc3c2c(=O)n(C)c(=O)n3C)ccc1-c1ccccc1` [Compound 14, 2-(1,3-dimethyl-2,6-dioxo-2,3-dihydro-1H-purin-7(6H)-yl)-N-(2-methoxybiphenyl-4-yl)acetamide], `COc1ccccc1-c1ccc(NC(=O)Cn2cnc3c2c(=O)n(C)c(=O)n3C)cc1` [Compound 27, 2-(1,3-dimethyl-2,6-dioxo-2,3-dihydro-1H-purin-7(6H)-yl)-N-(2′-methoxybiphenyl-4-yl)acetamide] is higher in IC50: less than 1000 nM for the first, greater than 10000 nM for the second.

`C[C@H]1CN(C(=O)OC(C)(C)C)CCN1c1ccc(NC(=O)Cn2cnc3c2c(=O)n(C)c(=O)n3C)cc1` [Compound 15, (S)-tert-butyl 4-(4-(2-(1,3-dimethyl-2,6-dioxo-2,3-dihydro-1H-purin-7(6H)-yl)acetamido)phenyl)-3-methylpiperazine-1-carboxylate] and `C[C@@H]1CN(C(=O)OC(C)(C)C)CCN1c1ccc(NC(=O)Cn2cnc3c2c(=O)n(C)c(=O)n3C)cc1` [Compound 16, (R)-tert-butyl 4-(4-(2-(1,3-dimethyl-2,6-dioxo-2,3-dihydro-1H-purin-7(6H)-yl)acetamido)phenyl)-3-methylpiperazine-1-carboxylate] cannot be ordered by IC50: less than 100 nM for the first, less than 1000 nM for the second.

Going from `CN(C(=O)Cn1cnc2c1c(=O)n(C)c(=O)n2C)c1ccc(-c2ccsc2)cc1` [Compound 17, 2-(1,3-dimethyl-2,6-dioxo-2,3-dihydro-1H-purin-7(6H)-yl)-N-methyl-N-(4-(thiophen-3-yl)phenyl)acetamide] to `Cn1c(=O)c2c(ncn2CC(=O)Nc2ccc(-c3ccsc3)cc2)n(C)c1=O` [Compound 18, 2-(1,3-dimethyl-2,6-dioxo-2,3-dihydro-1H-purin-7(6H)-yl)-N-(4-(thiophen-3-yl)phenyl)acetamide], the IC50 falls from greater than 10000 nM to less than 100 nM.

`Cn1c(=O)c2c(ncn2CC(=O)Nc2ccc(N3CCN(C(=O)OC(C)(C)C)CC3)cn2)n(C)c1=O` [Compound 20] and `Cn1c(=O)c2c(ncn2CC(=O)Nc2ccc(N3CCN(C(=O)OC(C)(C)C)CC3)cc2)n(C)c1=O` [Compound 22, tert-butyl 4-(4-(2-(1,3-dimethyl-2,6-dioxo-2,3-dihydro-1H-purin-7(6H)-yl)acetamido)phenyl)piperazine-1-carboxylate] cannot be ordered by IC50: less than 100 nM for the first, less than 100 nM for the second.

Going from `Cn1c(=O)c2c(ncn2CC(=O)Nc2ccc(N3CCN(Cc4cccc(Cl)c4)CC3)cn2)n(C)c1=O` [Compound 21, N-(5-(4-(3-chlorobenzyl)piperazin-1-yl)pyridin-2-yl)-2-(1,3-dimethyl-2,6-dioxo-2,3-dihydro-1H-purin-7(6H)-yl)acetamide] to `Cc1ccccc1-c1ccc(NC(=O)Cn2cnc3c2c(=O)n(C)c(=O)n3C)cc1` [Compound 28, 2-(1,3-dimethyl-2,6-dioxo-2,3-dihydro-1H-purin-7(6H)-yl)-N-(2′-methylbiphenyl-4-yl)acetamide], the IC50 rises from less than 100 nM to greater than 10000 nM. The first is the more potent here.

In the case of `CC(C(=O)Nc1ccc(N2CCN(C(=O)OC(C)(C)C)CC2)cc1)n1cnc2c1c(=O)n(C)c(=O)n2C` (stereo not drawn) [Compound 23, tert-butyl 4-(4-(2-(1,3-dimethyl-2,6-dioxo-2,3-dihydro-1H-purin-7(6H)-yl)propanamido)phenyl)piperazine-1-carboxylate], the IC50 is reported as less than 100 nM.
